Results: PubChem BioAssay AID2060505 (Molecular Pharmacology Branch, DTP, NCI, 2025)

System: 633275-114-R-J1-PDC complex spheroids, viability
Assay: Anticancer human tumor 633275-114-R-J1-PDC patient-derived endometrial adenocarcinoma cell line growth inhibition [GQUAD]
Conditions: for IC50: curve of first compound; for viability, T/C: stronger effect = lower value
Summary of the method: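 Multi-cell-type spheroids of tumor cells with HUVEC and mesenchymal stem cells, treated with drug combinations. Concentrations descend in half-log steps from near clinical Cmax, or from 10 microM where Cmax is unknown; viability read-out.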

[1] = second compound 0.0316 µM, first compound 0.0316 µM
[2] = second compound 0.0316 µM, first compound 0.1 µM
[3] = second compound 0.0316 µM, first compound 0.316 µM
[4] = second compound 0.0316 µM, first compound 1 µM
[5] = second compound 0.0316 µM, first compound 3.16 µM
[6] = second compound 0.0316 µM, first compound 10 µM
[7] = second compound 0.1 µM, first compound 0.0316 µM
[8] = second compound 0.1 µM, first compound 0.1 µM
[9] = second compound 0.1 µM, first compound 0.316 µM
[10] = second compound 0.1 µM, first compound 1 µM
[11] = second compound 0.1 µM, first compound 3.16 µM
[12] = second compound 0.1 µM, first compound 10 µM
[13] = second compound 0.316 µM, first compound 0.0316 µM
[14] = second compound 0.316 µM, first compound 0.1 µM
[15] = second compound 0.316 µM, first compound 0.316 µM
[16] = second compound 0.316 µM, first compound 1 µM
[17] = second compound 0.316 µM, first compound 3.16 µM
[18] = second compound 0.316 µM, first compound 10 µM
[19] = second compound 1 µM, first compound 0.0316 µM
[20] = second compound 1 µM, first compound 0.1 µM
[21] = second compound 1 µM, first compound 0.316 µM
[22] = second compound 1 µM, first compound 1 µM
[23] = second compound 1 µM, first compound 3.16 µM
[24] = second compound 1 µM, first compound 10 µM
[25] = second compound 3.16 µM, first compound 0.0316 µM
[26] = second compound 3.16 µM, first compound 0.1 µM
[27] = second compound 3.16 µM, first compound 0.316 µM
[28] = second compound 3.16 µM, first compound 1 µM
[29] = second compound 3.16 µM, first compound 3.16 µM
[30] = second compound 3.16 µM, first compound 10 µM
[31] = second compound 10 µM, first compound 0.0316 µM
[32] = second compound 10 µM, first compound 0.1 µM
[33] = second compound 10 µM, first compound 0.316 µM
[34] = second compound 10 µM, first compound 1 µM
[35] = second compound 10 µM, first compound 3.16 µM
[36] = second compound 10 µM, first compound 10 µM
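Note: spheroids exposed to the agents for seven days.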
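Throughout, for viability, T/C: percent of DMSO vehicle control viability which is 100%.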

## C#Cc1c(F)ccc2cc(O)cc(-c3ncc4c(N5CC6CCC(C5)N6)nc(OCC56CCCN5CC(F)C6)nc4c3F)c12 (stereo unspecified) + Cc1[nH]c2ccc(F)cc2c1-c1nc2c3cccnc3c3ncccc3c2[nH]1
Second compound 0.0316 µM
  IC50: > 10 µM
Second compound 0.1 µM
  IC50: > 10 µM
Second compound 0.316 µM
  IC50: > 10 µM
Second compound 1 µM
  IC50: > 10 µM
Second compound 3.16 µM
  IC50: 4.83 µM
Second compound 10 µM
  IC50: 4.06 µM
[1]
  viability, T/C: 103%
[2]
  viability, T/C: 89.9%
[3]
  viability, T/C: 93.8%
[4]
  viability, T/C: 81.1%
[5]
  viability, T/C: 75.7%
[6]
  viability, T/C: 60.6%
[7]
  viability, T/C: 89.7%
[8]
  viability, T/C: 107%
[9]
  viability, T/C: 83.7%
[10]
  viability, T/C: 88.4%
[11]
  viability, T/C: 69.8%
[12]
  viability, T/C: 64%
[13]
  viability, T/C: 89.3%
[14]
  viability, T/C: 86.7%
[15]
  viability, T/C: 82.7%
[16]
  viability, T/C: 81.1%
[17]
  viability, T/C: 77.5%
[18]
  viability, T/C: 60.6%
[19]
  viability, T/C: 78.8%
[20]
  viability, T/C: 82%
[21]
  viability, T/C: 82.5%
[22]
  viability, T/C: 74.6%
[23]
  viability, T/C: 71.5%
[24]
  viability, T/C: 56.6%
[25]
  viability, T/C: 63.5%
[26]
  viability, T/C: 66.1%
[27]
  viability, T/C: 65.7%
[28]
  viability, T/C: 66.2%
[29]
  viability, T/C: 52%
[30]
  viability, T/C: 41.1%
[31]
  viability, T/C: 58%
[32]
  viability, T/C: 60.7%
[33]
  viability, T/C: 60.7%
[34]
  viability, T/C: 62.4%
[35]
  viability, T/C: 52.8%
[36]
  viability, T/C: 34.7%

## CC(C)(O)C1CCC(Nc2ccc3ncc(-c4cccc(C(F)(F)F)c4)n3n2)CC1 (stereo unspecified) + Cc1[nH]c2ccc(F)cc2c1-c1nc2c3cccnc3c3ncccc3c2[nH]1
Second compound 0.0316 µM
  IC50: 1.97 µM
Second compound 0.1 µM
  IC50: 2.01 µM
Second compound 0.316 µM
  IC50: 1.78 µM
Second compound 1 µM
  IC50: 1.91 µM
Second compound 3.16 µM
  IC50: 0.947 µM
Second compound 10 µM
  IC50: 1.07 µM
[1]
  viability, T/C: 108%
[2]
  viability, T/C: 103%
[3]
  viability, T/C: 112%
[4]
  viability, T/C: 75.2%
[5]
  viability, T/C: 32.2%
[6]
  viability, T/C: 32.6%
[7]
  viability, T/C: 98.7%
[8]
  viability, T/C: 103%
[9]
  viability, T/C: 101%
[10]
  viability, T/C: 79.7%
[11]
  viability, T/C: 28.9%
[12]
  viability, T/C: 32.5%
[13]
  viability, T/C: 95.5%
[14]
  viability, T/C: 99.1%
[15]
  viability, T/C: 90.5%
[16]
  viability, T/C: 70.2%
[17]
  viability, T/C: 27.5%
[18]
  viability, T/C: 32.6%
[19]
  viability, T/C: 89.6%
[20]
  viability, T/C: 95.6%
[21]
  viability, T/C: 86.8%
[22]
  viability, T/C: 74.2%
[23]
  viability, T/C: 31%
[24]
  viability, T/C: 27%
[25]
  viability, T/C: 72.6%
[26]
  viability, T/C: 75.5%
[27]
  viability, T/C: 69.9%
[28]
  viability, T/C: 49.3%
[29]
  viability, T/C: 27.4%
[30]
  viability, T/C: 26.1%
[31]
  viability, T/C: 65.2%
[32]
  viability, T/C: 69.8%
[33]
  viability, T/C: 62.6%
[34]
  viability, T/C: 52.1%
[35]
  viability, T/C: 24.1%
[36]
  viability, T/C: 21.5%

## CCCS(=O)(=O)Nc1ccc(F)c(C(=O)c2c[nH]c3ncc(-c4ccc(Cl)cc4)cc23)c1F + Cc1[nH]c2ccc(F)cc2c1-c1nc2c3cccnc3c3ncccc3c2[nH]1
Second compound 0.0316 µM
  IC50: 9.54 µM
Second compound 0.1 µM
  IC50: 9.21 µM
Second compound 0.316 µM
  IC50: 8.58 µM
Second compound 1 µM
  IC50: 8.24 µM
Second compound 3.16 µM
  IC50: 7.09 µM
Second compound 10 µM
  IC50: > 10 µM
[1]
  viability, T/C: 103%
[2]
  viability, T/C: 94.6%
[3]
  viability, T/C: 107%
[4]
  viability, T/C: 100%
[5]
  viability, T/C: 86.8%
[6]
  viability, T/C: 48.1%
[7]
  viability, T/C: 100%
[8]
  viability, T/C: 108%
[9]
  viability, T/C: 102%
[10]
  viability, T/C: 102%
[11]
  viability, T/C: 91.6%
[12]
  viability, T/C: 46.7%
[13]
  viability, T/C: 91.2%
[14]
  viability, T/C: 98.9%
[15]
  viability, T/C: 103%
[16]
  viability, T/C: 104%
[17]
  viability, T/C: 94.7%
[18]
  viability, T/C: 43.1%
[19]
  viability, T/C: 86.4%
[20]
  viability, T/C: 88.8%
[21]
  viability, T/C: 92.5%
[22]
  viability, T/C: 90.2%
[23]
  viability, T/C: 90.1%
[24]
  viability, T/C: 42%
[25]
  viability, T/C: 70.7%
[26]
  viability, T/C: 71.2%
[27]
  viability, T/C: 66.9%
[28]
  viability, T/C: 76.2%
[29]
  viability, T/C: 71.2%
[30]
  viability, T/C: 41%
[31]
  viability, T/C: 60.4%
[32]
  viability, T/C: 64.3%
[33]
  viability, T/C: 65.2%
[34]
  viability, T/C: 74.4%
[35]
  viability, T/C: 63.3%
[36]
  viability, T/C: 41.1%
